According to ChEMBL document CHEMBL3885861, “Open TG-GATES”:

Organism: Rattus norvegicus
Assay: Open TG-GATES - Regimen: Single
Format: toxicity, organism-based, Sprague-Dawley
Design: regimen Single, gender Male, age 6 weeks
Details: in vivo, ip, 0.1 mg/kg, route intraperitoneal injection, dose 100 ug/Kg, dose level Middle; for APTT / Bas / Eos / Fbg / Hb / Ht / Lym / MCH / MCHC / MCV / Mono / Neu / PT / Plat / RBC / Ret / WBC: tissue Blood; for KIDNEY_L / KIDNEY_R / KIDNEY_TOTAL: tissue Kidney; for LIVER: tissue Liver; for A/G / ALP / ALT / AST / BUN / CRE / Ca / Cl / DBIL / GLC / IP / K / LDH / Na / PL / RALB / TBIL / TC / TG / TP / gamma-GTP: tissue Plasma

Work on CC(=O)N[C@H]1[C@@H](O[C@@H]2O[C@H](CC(O)[C@H]3O[C@@H](n4ccc(=O)[nH]c4=O)[C@H](O)[C@@H]3O)[C@H](O)[C@H](O)[C@H]2NC(=O)/C=C/CC(C)C)O[C@H](CO)[C@@H](N)[C@@H]1O (some centres not stated) [TUNICAMYCIN] yielded a TERMINAL_BW (3 h) of 221.2 g, an APTT (3 h) of 23.1 s and a Bas (3 h) of 0%. The Eos (3 h) was 0.6%, the Fbg (3 h) was 292.6 mg/dL and the Hb (3 h) was 12.8 g/dL. It also gave a Ht (3 h) of 39.3%, a Lym (3 h) of 71.2% and an MCH (3 h) of 20.2 pg. The MCHC (3 h) was 32.6%, the MCV (3 h) was 62 fL and the Mono (3 h) was 3.2%. It also gave a Neu (3 h) of 24.2%, a PT (3 h) of 15.9 s and a Plat (3 h) of 122.6 x10_4/uL. For the same molecule, the RBC (3 h) was 636.4 x10_4/ul, the Ret (3 h) was 8.1% and the WBC (3 h) was 97.2 x10_2/uL. The KIDNEY_L (3 h) was 0.9 g, the KIDNEY_R (3 h) was 0.9 g and the KIDNEY_TOTAL (3 h) was 1.9 g. The LIVER (3 h) was 10.4 g, the A/G (3 h) was 1.2 and the ALP (3 h) was 1559 IU/L. It also gave an ALT (3 h) of 38.8 IU/L, an AST (3 h) of 76.8 IU/L and a BUN (3 h) of 13 mg/dL. The CRE (3 h) was 0.2 mg/dL, the Ca (3 h) was 10.6 mg/dL and the Cl (3 h) was 106.8 meq/L. The DBIL (3 h) was 0 mg/dL, the GLC (3 h) was 167.2 mg/dL and the IP (3 h) was 8.2 mg/dL. For the same molecule, the K (3 h) was 4.2 meq/L, the LDH (3 h) was 158.2 IU/L and the Na (3 h) was 142.8 meq/L. For the same molecule, the PL (3 h) was 122.8 mg/dL, the RALB (3 h) was 2.9 g/dL and the TBIL (3 h) was 0.012 mg/dL. It also gave a TC (3 h) of 70.4 mg/dL, a TG (3 h) of 70.2 mg/dL and a TP (3 h) of 5.3 g/dL. The gamma-GTP (3 h) was 1.4 IU/L, the TERMINAL_BW (6 h) was 216.8 g and the APTT (6 h) was 22.4 s. For the same molecule, the Bas (6 h) was 0%, the Eos (6 h) was 0.4% and the Fbg (6 h) was 315.6 mg/dL. The Hb (6 h) was 13.2 g/dL, the Ht (6 h) was 40.1% and the Lym (6 h) was 67%. It also gave an MCH (6 h) of 21 pg, an MCHC (6 h) of 33% and an MCV (6 h) of 63.7 fL. It also gave a Mono (6 h) of 2%, a Neu (6 h) of 30% and a PT (6 h) of 15.7 s. For the same molecule, the Plat (6 h) was 110 x10_4/uL, the RBC (6 h) was 630.4 x10_4/ul and the Ret (6 h) was 7.9%. For the same molecule, the WBC (6 h) was 95.8 x10_2/uL, the KIDNEY_L (6 h) was 1 g and the KIDNEY_R (6 h) was 1 g. The KIDNEY_TOTAL (6 h) was 1.9 g, the LIVER (6 h) was 9.2 g and the A/G (6 h) was 1.2. It also gave an ALP (6 h) of 1277.4 IU/L, an ALT (6 h) of 39.8 IU/L and an AST (6 h) of 70.4 IU/L. The BUN (6 h) was 11 mg/dL, the CRE (6 h) was 0.2 mg/dL and the Ca (6 h) was 10.8 mg/dL. For the same molecule, the Cl (6 h) was 106.2 meq/L, the DBIL (6 h) was 0 mg/dL and the GLC (6 h) was 175 mg/dL. For the same molecule, the IP (6 h) was 9.3 mg/dL, the K (6 h) was 4.2 meq/L and the LDH (6 h) was 161.6 IU/L. It also gave a Na (6 h) of 141.4 meq/L, a PL (6 h) of 127.2 mg/dL and an RALB (6 h) of 3 g/dL. It also gave a TBIL (6 h) of 0.022 mg/dL, a TC (6 h) of 74 mg/dL and a TG (6 h) of 51.8 mg/dL. The TP (6 h) was 5.3 g/dL, the gamma-GTP (6 h) was 1.2 IU/L and the TERMINAL_BW (9 h) was 221.7 g. The APTT (9 h) was 23.2 s, the Bas (9 h) was 0% and the Eos (9 h) was 1%. For the same molecule, the Fbg (9 h) was 305.8 mg/dL, the Hb (9 h) was 12.9 g/dL and the Ht (9 h) was 39.8%. The Lym (9 h) was 81%, the MCH (9 h) was 20.7 pg and the MCHC (9 h) was 32.4%. It also gave an MCV (9 h) of 64 fL, a Mono (9 h) of 2.2% and a Neu (9 h) of 15.4%. The PT (9 h) was 15.8 s, the Plat (9 h) was 123.1 x10_4/uL and the RBC (9 h) was 623 x10_4/ul. The Ret (9 h) was 7.8%, the WBC (9 h) was 86.6 x10_2/uL and the KIDNEY_L (9 h) was 0.9 g. The KIDNEY_R (9 h) was 1 g, the KIDNEY_TOTAL (9 h) was 1.9 g and the LIVER (9 h) was 9.2 g. The A/G (9 h) was 1.2, the ALP (9 h) was 1517.2 IU/L and the ALT (9 h) was 35.6 IU/L. For the same molecule, the AST (9 h) was 71 IU/L, the BUN (9 h) was 12.4 mg/dL and the CRE (9 h) was 0.1 mg/dL. It also gave a Ca (9 h) of 10.9 mg/dL, a Cl (9 h) of 106.2 meq/L and a DBIL (9 h) of 0 mg/dL. For the same molecule, the GLC (9 h) was 173.6 mg/dL, the IP (9 h) was 9.2 mg/dL and the K (9 h) was 4.2 meq/L. The LDH (9 h) was 137.4 IU/L, the Na (9 h) was 141.8 meq/L and the PL (9 h) was 124.8 mg/dL. The RALB (9 h) was 2.9 g/dL, the TBIL (9 h) was 0.014 mg/dL and the TC (9 h) was 70.2 mg/dL. The TG (9 h) was 76 mg/dL, the TP (9 h) was 5.3 g/dL and the gamma-GTP (9 h) was 1 IU/L. It also gave a TERMINAL_BW (24 h) of 228.5 g, an APTT (24 h) of 22.4 s and a Bas (24 h) of 0%. For the same molecule, the Eos (24 h) was 0.8%, the Fbg (24 h) was 332.8 mg/dL and the Hb (24 h) was 13.3 g/dL. It also gave a Ht (24 h) of 41.4%, a Lym (24 h) of 80.6% and an MCH (24 h) of 19.9 pg. It also gave an MCHC (24 h) of 32%, an MCV (24 h) of 62 fL and a Mono (24 h) of 2.6%. For the same molecule, the Neu (24 h) was 15.2%, the PT (24 h) was 15.8 s and the Plat (24 h) was 105.4 x10_4/uL. The RBC (24 h) was 668 x10_4/ul, the Ret (24 h) was 7.2% and the WBC (24 h) was 84.3 x10_2/uL. It also gave a KIDNEY_L (24 h) of 0.9 g, a KIDNEY_R (24 h) of 1 g and a KIDNEY_TOTAL (24 h) of 1.9 g. It also gave an LIVER (24 h) of 10.2 g, an A/G (24 h) of 1.2 and an ALP (24 h) of 1529.6 IU/L. For the same molecule, the ALT (24 h) was 46.2 IU/L, the AST (24 h) was 74.2 IU/L and the BUN (24 h) was 15.2 mg/dL. The CRE (24 h) was 0.1 mg/dL, the Ca (24 h) was 10.5 mg/dL and the Cl (24 h) was 105.4 meq/L. The DBIL (24 h) was 0 mg/dL, the GLC (24 h) was 181 mg/dL and the IP (24 h) was 7.3 mg/dL. It also gave a K (24 h) of 4.2 meq/L, an LDH (24 h) of 152.8 IU/L and a Na (24 h) of 142 meq/L. For the same molecule, the PL (24 h) was 143.8 mg/dL, the RALB (24 h) was 3.1 g/dL and the TBIL (24 h) was 0.014 mg/dL. For the same molecule, the TC (24 h) was 77.6 mg/dL, the TG (24 h) was 78.2 mg/dL and the TP (24 h) was 5.6 g/dL. The gamma-GTP (24 h) was 1.4 IU/L.
